In ChEMBL document CHEMBL1130900, “Synthesis and structure-activity relationships of 2-pyridones: II. 8-(Fluoro-substituted pyrrolidinyl)-2-pyridones as antibacterial agents” (Bioorg Med Chem Lett, 1998):
In brackets after ≈: the same amount, converted by molar mass.

Tests used:
[1] = test system: Streptococcus equinus; assay: Antibacterial activity against Gram-positive Streptococcus bovis A5169 was determined; assay type: functional; conditions: Streptococcus equinus; read-out: MIC
[2] = test system: Enterococcus faecium; assay: Antibacterial activity against Enterococcus faecium ATCC 8043 was determined; assay type: functional
[3] = test system: Escherichia coli; assay: Antibacterial activity against Escherichia coli JUHL was determined; assay type: functional
[4] = test system: Staphylococcus aureus; assay: Antibacterial activity against Staphylococcus aureus NCTC-10649M was determined; assay type: functional
[5] = test system: Providencia stuartii; assay: Antibacterial activity against Gram-negative Providencia Stuartii CMX640 was determined; assay type: functional
[6] = test system: Klebsiella pneumoniae; assay: Antibacterial activity against Klebsiella pneumoniae ATCC 8045 was determined; assay type: functional
[7] = test system: Streptococcus pyogenes; assay: Antibacterial activity against Streptococcus pyogenes EES61 was determined; assay type: functional
[8] = test system: Staphylococcus aureus; assay: Effective dose against Staphylococcus aureus NCTC-10649M in mice upon peroral administration; assay type: functional; conditions: po
[9] = Compound was tested for its effective dose against Escherichia coli JUHL in mice upon peroral administration; assay type: functional; conditions: Mus musculus, po
[10] = test system: Staphylococcus aureus; assay: Effective dose against Staphylococcus aureus NCTC-10649M in mice upon subcutaneous administration; assay type: functional; conditions: sc
[11] = test system: Pseudomonas aeruginosa; assay: Antibacterial activity against Pseudomonas aeruginosa A-5007 was determined; assay type: functional
[12] = test system: Escherichia coli; assay: Effective dose against Escherichia coli JUHL in mice upon subcutaneous administration; assay type: functional; conditions: sc
[13] = test system: Staphylococcus aureus; assay: Antibacterial activity against Staphylococcus aureus A1775 was determined; assay type: functional
[14] = test system: Klebsiella aerogenes; assay: Antibacterial activity against Enterobacter aerogenes ATCC 13048 was determined; assay type: functional
[15] = test system: Mus musculus; assay: Compound was tested for its effective dose against Staphylococcus aureus NCTC-10649M in mice upon peroral administration; assay type: functional; conditions: po
[16] = test system: Mus musculus; assay: Compound was tested for its effective dose against Staphylococcus aureus NCTC-10649M in mice upon subcutaneous administration; assay type: functional; conditions: sc
[17] = test system: DNA gyrase (bacterial); assay: Compound was tested for bacterial DNA gyrase activity; conditions: Bacteria
[18] = Compound was evaluated for maximal plasma concentration in rat upon 5 mg/kg upon oral administration; assay type: ADME, organism-based; design: dose 5 mg/kg, route oral
[19] = Oral bioavailability in rat (dose 5 mg/kg); assay type: ADME, organism-based; conditions: in vivo
[20] = Enterococcus faecium, ATCC 8043, read-out: MIC
[21] = Escherichia coli, read-out: MIC
[22] = Staphylococcus aureus, read-out: MIC
[23] = Providencia stuartii, read-out: MIC
[24] = Klebsiella pneumoniae, ATCC 8045, read-out: MIC
[25] = Streptococcus pyogenes, read-out: MIC
[26] = Pseudomonas aeruginosa, read-out: MIC
[27] = Klebsiella aerogenes, ATCC 13048, read-out: MIC

| MIC [1] [µg/mL] | MIC [2, 20] [µg/mL] | MIC [3, 21] [µg/mL] | MIC [4, 22] [µg/mL] | MIC [5, 23] [µg/mL] | MIC [6, 24] [µg/mL] | MIC [7, 25] [µg/mL] | MIC [11, 26] [µg/mL] | MIC [13, 22] [µg/mL] | MIC [14, 27] [µg/mL] | SMILES | ED50 [8] [mg/kg/day] | ED50 [9] [mg/kg/day] | ED50 [10] [mg/kg/day] | ED50 [12] [mg/kg/day] | also measured |
| --- | --- | --- | --- | --- | --- | --- | --- | --- | --- | --- | --- | --- | --- | --- | --- |
| 0.1 (≈ 0.255 µM) | 0.1 (≈ 0.255 µM) | 0.05 (≈ 0.128 µM) | 0.02 (≈ 0.0511 µM) | 0.78 (≈ 1.99 µM) | 0.1 (≈ 0.255 µM) | 0.05 (≈ 0.128 µM) | 0.78 (≈ 1.99 µM) | 1.56 (≈ 3.99 µM) | – | Cc1c(N2CCC(CN)(CF)C2)c(F)cn2c(=O)c(C(=O)O)cc(C3CC3)c12 (stereo not drawn) | 3.8 | > 10 | 1.5 | 1.5 | – |
| – | – | – | – | – | – | – | – | – | – | Cc1c(N2C[C@@H](CF)[C@H](N)C2)c(F)cn2c(=O)c(C(=O)O)cc(C3CC3)c12 (racemic) | – | – | – | – | MIC [2]: 0.1 µg/mL (≈ 0.265 µM); MIC [3]: 0.01 µg/mL (≈ 0.0265 µM); MIC [4]: 0.2 µg/mL (≈ 0.53 µM); MIC [5]: 0.78 µg/mL (≈ 2.07 µM); MIC [6]: 0.005 µg/mL (≈ 0.0132 µM); MIC [7]: 0.1 µg/mL (≈ 0.265 µM); MIC [11]: 0.39 µg/mL (≈ 1.03 µM); MIC [14]: 0.05 µg/mL (≈ 0.132 µM); MIC [13]: 3.1 µg/mL (≈ 8.21 µM) |
| 0.39 (≈ 0.912 µM) | 0.39 (≈ 0.912 µM) | 0.78 (≈ 1.82 µM) | 0.02 (≈ 0.0468 µM) | 6.2 (≈ 14.5 µM) | 0.39 (≈ 0.912 µM) | 0.2 (≈ 0.468 µM) | 6.2 (≈ 14.5 µM) | 0.78 (≈ 1.82 µM) | 1.56 (≈ 3.65 µM) | Cc1c(N2CC[C@@H]([C@@H](N)C(F)(F)F)C2)c(F)cn2c(=O)c(C(=O)O)cc(C3CC3)c12 | – | – | – | – | – |
| – | – | – | – | – | – | – | – | – | – | Cc1c(N2C[C@@H](N)[C@H](F)C2)c(F)cn2c(=O)c(C(=O)O)cc(C3CC3)c12 (stereo in doubt; 3a) | – | – | – | – | CC50 [17]: 0.7 µg/mL (≈ 1.93 µM) |
| 0.1 (≈ 0.265 µM) | 0.1 (≈ 0.265 µM) | 0.02 (≈ 0.053 µM) | – | 0.78 (≈ 2.07 µM) | 0.01 (≈ 0.0265 µM) | 0.1 (≈ 0.265 µM) | 0.39 (≈ 1.03 µM) | 1.56 (≈ 4.13 µM) | 0.05 (≈ 0.132 µM) | Cc1c(N2C[C@@H](CF)[C@H](N)C2)c(F)cn2c(=O)c(C(=O)O)cc(C3CC3)c12 | – | – | 1.2 | 0.8 | MIC [4]: 0.02 µg/mL (≈ 0.053 µM) |
| – | 0.1 (≈ 0.265 µM) | 0.005 (≈ 0.0132 µM) | 0.01 (≈ 0.0265 µM) | 0.39 (≈ 1.03 µM) | 0.005 (≈ 0.0132 µM) | 0.02 (≈ 0.053 µM) | 0.2 (≈ 0.53 µM) | 1.56 (≈ 4.13 µM) | 0.02 (≈ 0.053 µM) | Cc1c(N2C[C@H](CF)[C@H](N)C2)c(F)cn2c(=O)c(C(=O)O)cc(C3CC3)c12 | – | – | – | – | – |
| 0.39 (≈ 1.07 µM) | 0.39 (≈ 1.07 µM) | – | 0.05 (≈ 0.138 µM) | 0.78 (≈ 2.15 µM) | 0.02 (≈ 0.055 µM) | 0.39 (≈ 1.07 µM) | 0.78 (≈ 2.15 µM) | 1.56 (≈ 4.29 µM) | 0.2 (≈ 0.55 µM) | Cc1c(N2C[C@H](N)[C@@H](F)C2)c(F)cn2c(=O)c(C(=O)O)cc(C3CC3)c12 | 25 | > 10 | 4.8 | > 5 | – |
| 0.2 (≈ 0.53 µM) | 0.1 (≈ 0.265 µM) | 0.02 (≈ 0.053 µM) | 0.02 (≈ 0.053 µM) | 0.39 (≈ 1.03 µM) | 0.01 (≈ 0.0265 µM) | 0.1 (≈ 0.265 µM) | 0.39 (≈ 1.03 µM) | 0.78 (≈ 2.07 µM) | 0.1 (≈ 0.265 µM) | Cc1c(N2CCC(N)(CF)C2)c(F)cn2c(=O)c(C(=O)O)cc(C3CC3)c12 (stereo not drawn) | 10.3 | 15.1 | 2.7 | 4.3 | Cmax [18]: 600 ng/mL; bioavailability [19]: 63% |
| 0.39 (≈ 0.943 µM) | 0.2 (≈ 0.484 µM) | 0.05 (≈ 0.121 µM) | 0.02 (≈ 0.0484 µM) | 3.1 (≈ 7.5 µM) | 0.05 (≈ 0.121 µM) | 0.2 (≈ 0.484 µM) | 0.78 (≈ 1.89 µM) | 1.56 (≈ 3.77 µM) | 0.2 (≈ 0.484 µM) | Cc1c(N2C[C@@H](N)[C@H](C(F)(F)F)C2)c(F)cn2c(=O)c(C(=O)O)cc(C3CC3)c12 | 25.4 | – | 4.8 | – | CC50 [17]: 3.8 µg/mL (≈ 9.19 µM) |

| SMILES | MIC [1] [µg/mL] | MIC [2, 20] [µg/mL] | MIC [3, 21] [µg/mL] | MIC [4, 22] [µg/mL] | MIC [5, 23] [µg/mL] | MIC [6, 24] [µg/mL] | MIC [7, 25] [µg/mL] | MIC [11, 26] [µg/mL] | MIC [13, 22] [µg/mL] | MIC [14, 27] [µg/mL] | ED50 [8] [mg/kg/day] | ED50 [9] [mg/kg/day] | ED50 [10] [mg/kg/day] | ED50 [12] [mg/kg/day] | also measured |
| --- | --- | --- | --- | --- | --- | --- | --- | --- | --- | --- | --- | --- | --- | --- | --- |
| O=C(O)c1cn(C2CC2)c2cc(N3CCNCC3)c(F)cc2c1=O [CIPROFLOXACIN] | 0.78 (≈ 2.35 µM) | 0.78 (≈ 2.35 µM) | – | 0.39 (≈ 1.18 µM) | 1.56 (≈ 4.71 µM) | 0.02 (≈ 0.0604 µM) | – | 0.2 (≈ 0.604 µM) | > 100 | 0.02 (≈ 0.0604 µM) | – | 1 | – | 0.1 | ED50 [15]: 28.2 mg/kg/day; ED50 [16]: 4.1 mg/kg/day |
